Reference: US9464056B2, “Fungicidal 4-methylanilino pyrazoles” (E. I. DU PONT DE NEMOURS AND COMPANY, priority 2012, dated 2016)

Experiments:
Type in all cases: in vivo
Botrytis cinerea = test: Test A: preventive spray on tomato seedlings, Botrytis cinerea (tomato Botrytis), visual disease rating; settings: 100 = 100% disease control, 0 = no disease control relative to controls
From the text: (§1) General protocol for preparing test suspensions for Tests A-H: the test compounds were first dissolved in acetone in an amount equal to 3% of the final volume and then suspended at the desired concentration (in ppm) in acetone and purified water (50/50 mix by volume) containing 250 ppm of the surfactant Trem® 014 (polyhydric alcohol esters). The resulting test suspensions were then used in Tests A-F. Spraying a 40 ppm test suspension to the point of run-off on the test plants was the equivalent of a rate of 160 g/ha. Unless otherwise indicated, the rating values indicate a 40 ppm test suspension was used. The test suspension was sprayed to the point of run-off on tomato seedlings. The following day the seedlings were inoculated with a spore suspension of Botrytis cinerea (the causal agent of tomato Botrytis) and incubated in saturated atmosphere at 20° C. for 48 h, and then moved to a growth chamber at 27° C. for 3 days, after which time visual disease ratings were made. Results for Tests A-F are given in Table A. In the Table, a rating of 100 indicates 100% disease control and a rating of 0 indicates no disease control (relative to the controls). A dash (-) indicates no test results.

Septoria tritici = test: Test D: preventive spray on wheat seedlings, Septoria tritici (wheat leaf blotch), visual disease rating; settings: Zymoseptoria tritici, topical, 504 h, 100 = 100% disease control, 0 = no disease control relative to controls
From the text: as §1, with “on wheat” for “on tomato”, “of Septoria tritici” for “of Botrytis cinerea”, “of wheat leaf blotch)” for “of tomato Botrytis)”, “at 24°” for “at 20°”, “at 20°” for “at 27°”, “for 19” for “for 3”

[1] = tested on: Puccinia recondita f. sp. tritici; test: Test E1: curative spray on wheat seedlings after inoculation, Puccinia recondita f. sp. tritici (wheat leaf rust), visual disease rating; settings: sprayed after inoculation (curative), 100 = 100% disease control, 0 = no disease control relative to controls
From the text: as §1, with “used. Wheat seedlings were inoculated with a spore suspension of Puccinia recondita f. sp. tritici (the causal agent of wheat leaf rust) and incubated in a saturated atmosphere at 20° C. for 24 h, and then moved to a growth chamber at 20° C. for 2 days. After 2 days, the” for “used. The”, “on the wheat seedlings, and then” for “on tomato seedlings. The following day”, “were moved back to the growth chamber” for “were inoculated with a spore suspension of Botrytis cinerea (the causal agent of tomato Botrytis) and incubated in saturated atmosphere”, “for 4 days. Upon removal,” for “for 48 h, and then moved to a growth chamber at 27° C. for 3 days, after which time”

[2] = tested on: Puccinia recondita f. sp. tritici; test: Test E2: preventive spray on wheat seedlings, Puccinia recondita f. sp. tritici (wheat leaf rust), visual disease rating; settings: topical, 192 h, 100 = 100% disease control, 0 = no disease control relative to controls
From the text: (§2) General protocol for preparing test suspensions for Tests A-H: the test compounds were first dissolved in acetone in an amount equal to 3% of the final volume and then suspended at the desired concentration (in ppm) in acetone and purified water (50/50 mix by volume) containing 250 ppm of the surfactant Trem® 014 (polyhydric alcohol esters). The resulting test suspensions were then used in Tests A-F. Spraying a 40 ppm test suspension to the point of run-off on the test plants was the equivalent of a rate of 160 g/ha. Unless otherwise indicated, the rating values indicate a 40 ppm test suspension was used. The test suspension was sprayed to the point of run-off on wheat seedlings. The following day the seedlings were inoculated with a spore suspension of Puccinia recondita f. sp. tritici (the causal agent of wheat leaf rust) and incubated in a saturated atmosphere at 20° C. for 24 h, and then moved to a growth chamber at 20° C. for 7 days, after which time visual disease ratings were made. Results for Tests A-F are given in Table A. In the Table, a rating of 100 indicates 100% disease control and a rating of 0 indicates no disease control (relative to the controls). A dash (-) indicates no test results.

[3] = tested on: Blumeria graminis f. sp. tritici; test: Test F: preventive spray on wheat seedlings, Blumeria graminis f. sp. tritici (wheat powdery mildew), visual disease rating; settings: topical, 192 h, 100 = 100% disease control, 0 = no disease control relative to controls
From the text: as §2, with “spore dust” for “spore suspension”, “of Blumeria graminis” for “of Puccinia recondita”, “tritici (also known as Erysiphe graminis f. sp. tritici, the” for “tritici (the”, “wheat powdery mildew)” for “wheat leaf rust)”, “in” for “in a saturated atmosphere at 20° C. for 24 h, and then moved to”, “for 8” for “for 7”

Cc1cc(F)c(Nc2c(-c3ccc(F)cc3Cl)c(C)nn2C)c(Br)c1 [Compound 1, N-(2-bromo-6-fluoro-4-methylphenyl)-4-(2-chloro-4-fluorophenyl)-1,3-dimethyl-1H-pyrazol-5-amine]
pest or weed control at 40 µg/mL (Botrytis cinerea): 100% | pest or weed control at 40 µg/mL (Septoria tritici): 100% | Test E1 rating (% disease control) [1]: 100 | pest or weed control at 40 µg/mL [2]: 100% | pest or weed control at 40 µg/mL [3]: 100%
